Our source for the EC50 values is patent US10058550B2, “Methods of treating heart failure” (priority 2015, dated 2018).

As usually defined, the EC50 is the concentration needed to bring the measured effect to its halfway point.

human APJ receptor, sequence (P35414 whole entry): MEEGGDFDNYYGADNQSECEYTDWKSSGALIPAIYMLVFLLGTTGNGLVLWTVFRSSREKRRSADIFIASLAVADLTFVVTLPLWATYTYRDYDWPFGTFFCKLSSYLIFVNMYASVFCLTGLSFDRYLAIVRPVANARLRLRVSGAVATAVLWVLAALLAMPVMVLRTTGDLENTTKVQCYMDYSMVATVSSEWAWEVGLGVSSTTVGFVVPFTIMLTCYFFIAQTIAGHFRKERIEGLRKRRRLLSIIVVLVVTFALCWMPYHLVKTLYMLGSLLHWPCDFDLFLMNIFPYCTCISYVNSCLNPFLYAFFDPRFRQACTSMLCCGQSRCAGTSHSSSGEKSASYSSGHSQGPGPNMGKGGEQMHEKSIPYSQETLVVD

The assay deals with human APJ receptor (Homo sapiens (Human), UniProt P35414). Put plainly: biochemical. Type of assay: biochemical. The conditions noted are these: read-out: Activity hAPJ SPA EC50 IP. As for the experimental part:
The human APJ receptor was cloned by polymerase chain reaction and the gene encoding the receptor was subcloned in pFLAG-CMV™-3 expression vector (Sigma, Saint Louis, Mo. USA) in-house at Amgen. A GTPγS binding assay was performed on membranes prepared from CHO cells stably expressing human APJ receptor. The optimum experimental conditions for the concentrations of GDP, MgCl2, and NaCl in the assay buffer were initially determined. The assay was performed in assay buffer [20 mM HEPES, pH 7.5, 5 mM MgCl2, and 0.1% (w/v) BSA with 200 mM NaCl, 3 μM GDP] and membranes expressing human APJ receptor/well along with WGA PS beads. The reaction was initiated by addition of 0.2 nM [^35S]GTPγS (Perkin Elmer Life and Analytical Sciences, Waltham USA) in the absence or presence of various ligands and incubated at RT for 90 min. […] All the results presented are means of several independent experiments and analyzed by non-linear regression methods using commercially available program Prism (GraphPad, San Diego, Calif.) to obtain EC50 detailed in Table 58.
`COc1cccc(-c2nnc(NS(=O)(=O)[C@@H](C)[C@@H](OC(C)C)c3ncc(C)cn3)n2-c2c(OC)cccc2OC)n1` (single isomer, unassigned) [Example 95.0]: the half-maximal effective concentration (EC50) is 0.11 nM.
Consider `CCO[C@@H](c1ncc(C)cn1)[C@@H](C)S(=O)(=O)Nc1nnc(-c2cccnc2)n1-c1c(OC)cccc1OC` (single isomer, unassigned) [Example 108.0], for which the EC50 came out at 150 nM.
On to `COc1cccc(OC)c1-n1c(NS(=O)(=O)[C@@H](C)Cc2ncc(F)cn2)nnc1-c1cncc(C)c1` (single isomer, unassigned) [Example 208.0], for which the EC50 was found to be 1 nM.
Then `COc1cccc(OC)c1-n1c(NS(=O)(=O)[C@@H](C)Cc2ncc(F)cn2)nnc1-c1cncc(C)c1` (single isomer, unassigned) [Example 209.0], with 4.9 nM; and `COc1cccc(OC)c1-n1c(NS(=O)(=O)[C@@H](C)Cc2ncc(F)cn2)nnc1-c1cnccc1C` (single isomer, unassigned) [Example 217.0], with 180 nM.
As for `COc1cccc(OC)c1-n1c(NS(=O)(=O)[C@@H](C)Cc2ncc(F)cn2)nnc1-c1cnccc1C` (single isomer, unassigned) [Example 218.0], the EC50 was 300 nM.
Then `COc1cccc(OC)c1-n1c(NS(=O)(=O)[C@@H](C)Cc2ncc(F)cn2)nnc1-c1cncc(Cl)c1` (single isomer, unassigned) [Example 220.0], with 7.1 nM; and `COc1cccc(OC)c1-n1c(NS(=O)(=O)[C@@H](C)Cc2ncc(F)cn2)nnc1-c1cncc(Cl)c1` (single isomer, unassigned) [Example 221.0], with 35 nM.
Consider `COc1cccc(OC)c1-n1c(NS(=O)(=O)[C@@H](C)[C@H](C)c2ncc(F)cn2)nnc1-c1cncc(C)c1` (single isomer, unassigned) [Example 234.0], for which the EC50 worked out at 16 nM.
The result for `COc1cccc(OC)c1-n1c(NS(=O)(=O)[C@@H](C)[C@H](C)c2ncc(F)cn2)nnc1-c1cncc(C)c1` (single isomer, unassigned) [Example 235.0] reads 0.28 nM; that for `COc1cccc(OC)c1-n1c(NS(=O)(=O)[C@@H](C)[C@H](C)c2ncc(F)cn2)nnc1-c1cncc(C)c1` (single isomer, unassigned) [Example 236.0], 100 nM; that for `COc1cccc(OC)c1-n1c(NS(=O)(=O)[C@@H](C)[C@H](C)c2ncc(F)cn2)nnc1-c1cncc(C)c1` (single isomer, unassigned) [Example 237.0], 14 nM.
For `COc1cccc(OC)c1-n1c(NS(=O)(=O)[C@@H](C)[C@H](O)c2ccc(C#N)cc2)nnc1-c1cncc(C)c1` (single isomer, unassigned) [Example 248.0], the EC50 came out at 60 nM.
Then `COc1cccc(-c2nnc(NS(=O)(=O)C[C@H](O)c3ccc(F)cc3S(C)(=O)=O)n2-c2c(OC)cccc2OC)n1` (single isomer, unassigned) [Example 268.0, (R)—N-(4-(2,6-dimethoxyphenyl)-5-(6-methoxypyridin-2-yl)-4H-1,2,4-triazol-3-yl)-2-(4-fluoro-2-(methylsulfonyl)phenyl)-2-hydroxyethanesulfonamide or (S)—N-(4-(2,6-dimethoxyphenyl)-5-(6-methoxypyridin-2-yl)-4H-1,2,4-triazol-3-yl)-2-(4-fluoro-2-(methylsulfonyl)phenyl)-2-hydroxyethanesulfonamide], with 0.17 nM.
As to `COc1cccc(-c2nnc(NS(=O)(=O)[C@@H](C)[C@H](O)c3ccc(F)cc3F)n2-c2c(OC)cccc2OC)n1` (single isomer, unassigned) [Example 279.0], the 50% effective concentration (EC50) turned out to be 28 nM.
With `COc1cccc(-c2nnc(NS(=O)(=O)[C@@H](C)[C@H](O)c3ccc(F)cc3F)n2-c2c(OC)cccc2OC)n1` (single isomer, unassigned) [Example 280.0], the EC50 was found to be 0.27 nM.
Consider `COc1cccc(-c2nnc(NS(=O)(=O)[C@@H](C)[C@H](O)c3ccc(F)cc3F)n2-c2c(OC)cccc2OC)n1` (single isomer, unassigned) [Example 281.0], for which the EC50 turned out to be 43 nM.
For `COc1cccc(-c2nnc(NS(=O)(=O)[C@@H](C)[C@H](O)c3ccc(F)cc3F)n2-c2c(OC)cccc2OC)n1` (single isomer, unassigned) [Example 282.0], the half-maximal effective concentration (EC50) came to 0.71 nM.
For `COc1cccc(-c2nnc(NS(=O)(=O)[C@@H](C)[C@H](O)c3ccc(F)cc3)n2-c2c(OC)cccc2OC)n1` (single isomer, unassigned) [Example 284.0], the concentration for a half-maximal effect (EC50) was determined as 13 nM.
With `COc1cccc(-c2nnc(NS(=O)(=O)[C@@H](C)[C@H](O)c3ccc(F)cc3)n2-c2c(OC)cccc2OC)n1` (single isomer, unassigned) [Example 285.0], the 50% effective concentration (EC50) came out at 0.57 nM.
Turning to `COc1cccc(-c2nnc(NS(=O)(=O)[C@@H](C)[C@H](O)c3ccc(F)cc3)n2-c2c(OC)cccc2OC)n1` (single isomer, unassigned) [Example 286.0], the EC50 stood at 0.68 nM.
With `COc1cccc(-c2nnc(NS(=O)(=O)[C@@H](C)[C@H](O)c3ccc(F)cc3)n2-c2c(OC)cccc2OC)n1` (single isomer, unassigned) [Example 287.0], the EC50 was determined as 14 nM.
The result for `COc1cccc(-c2nnc(NS(=O)(=O)[C@@H](C)[C@H](O)c3ccc(F)cc3S(C)(=O)=O)n2-c2c(OC)cccc2OC)n1` (single isomer, unassigned) [Example 289.0, (1R,2S)—N-(4-(2,6-dimethoxyphenyl)-5-(6-methoxypyridin-2-yl)-4H-1,2,4-triazol-3-yl)-1-(4-fluoro-2-(methylsulfonyl)phenyl)-1-hydroxypropane-2-sulfonamide or (1S,2R)—N-(4-(2,6-dimethoxyphenyl)-5-(6-methoxypyridin-2-yl)-4H-1,2,4-triazol-3-yl)-1-(4-fluoro-2-(methylsulfonyl)phenyl)-1-hydroxypropane-2-sulfonamide] reads 11 nM.
Regarding `COc1cccc(OC)c1-n1c(NS(=O)(=O)[C@@H](C)[C@H](O)c2nc(C)c(C)s2)nnc1-c1cncc(C)c1` (single isomer, unassigned) [Example 291.0], the concentration giving a half-maximal response (EC50) came to 1.8 nM.
Take `COc1cccc(OC)c1-n1c(NS(=O)(=O)[C@@H](C)[C@H](O)c2nc(C)c(C)s2)nnc1-c1cncc(C)c1` (single isomer, unassigned) [Example 292.0]: the 50% effective concentration (EC50) turned out to be 0.9 nM.
With `COc1cccc(OC)c1-n1c(NS(=O)(=O)[C@@H](C)[C@H](O)c2nc(C)c(C)s2)nnc1-c1cncc(C)c1` (single isomer, unassigned) [Example 293.0], the concentration giving a half-maximal response (EC50) was found to be 13 nM.
In the case of `COc1cccc(OC)c1-n1c(NS(=O)(=O)[C@@H](C)[C@H](O)c2nc(C)c(C)s2)nnc1-c1cncc(C)c1` (single isomer, unassigned) [Example 294.0], the EC50 is 11 nM.
`COc1cccc(OC)c1-n1c(NS(=O)(=O)[C@@H](C)[C@H](O)c2nc(C)c(C)s2)nnc1-c1cncc(C)c1` (single isomer, unassigned) [Example 295.0]: the EC50 came to 98 nM.
Regarding `COc1cccc(OC)c1-n1c(NS(=O)(=O)[C@@H](C)[C@H](O)c2nc(C)c(C)s2)nnc1-c1cncc(C)c1` (single isomer, unassigned) [Example 296.0], the EC50 came to 4.7 nM.
Regarding `COc1cnc([C@@H](O)[C@H](C)S(=O)(=O)Nc2nnc(-c3cncc(C)c3)n2-c2c(OC)cccc2OC)cn1` (single isomer, unassigned) [Example 305.0], the EC50 came to 0.39 nM.
With `COc1cnc([C@@H](O)[C@H](C)S(=O)(=O)Nc2nnc(-c3cncc(C)c3)n2-c2c(OC)cccc2OC)cn1` (single isomer, unassigned) [Example 306.0], the concentration giving a half-maximal response (EC50) stood at 20 nM.
For `COc1cnc([C@@H](O)[C@H](C)S(=O)(=O)Nc2nnc(-c3cncc(C)c3)n2-c2c(OC)cccc2OC)cn1` (single isomer, unassigned) [Example 308.0], the half-maximal effective concentration (EC50) was 76 nM.
As to `COc1cnc([C@@H](O)[C@H](C)S(=O)(=O)Nc2nnc(-c3cncc(C)c3)n2-c2c(OC)cccc2OC)cn1` (single isomer, unassigned) [Example 309.0], the 50% effective concentration (EC50) came out at 9.5 nM.
For the molecule `COc1cnc([C@@H](OC)[C@H](C)S(=O)(=O)Nc2nnc(-c3cncc(C)c3)n2-c2c(OC)cccc2OC)cn1` (single isomer, unassigned) [Example 311.0], the concentration for a half-maximal effect (EC50) came to 0.26 nM.
Regarding `COc1cnc([C@@H](OC)[C@H](C)S(=O)(=O)Nc2nnc(-c3cncc(C)c3)n2-c2c(OC)cccc2OC)cn1` (single isomer, unassigned) [Example 312.0], the concentration for a half-maximal effect (EC50) stood at 27 nM.
`COc1cccc(-c2nnc(NS(=O)(=O)C[C@H](O)c3ccc(F)cn3)n2-c2c(OC)cccc2OC)n1` (single isomer, unassigned) [Example 316.0, (2R)—N-(4-(2,6-dimethoxyphenyl)-5-(6-methoxy-2-pyridinyl)-4H-1,2,4-triazol-3-yl)-2-(5-fluoro-2-pyridinyl)-2-hydroxyethanesulfonamide or (2S)—N-(4-(2,6-dimethoxyphenyl)-5-(6-methoxy-2-pyridinyl)-4H-1,2,4-triazol-3-yl)-2-(5-fluoro-2-pyridinyl)-2-hydroxyethanesulfonamide]: the EC50 is 0.5 nM.
